The results in this text go back to US9988430B2, “Stable GLP-1 based GLP-1/glucagon receptor co-agonists” (Novo Nordisk A/S, priority 2014, dated 2018).

Each structure is given as a SMILES string. *1 amine or outer side, *2 acyl side, *3 side chain or, on linkers, in order; H or OH if unused. Where a SMILES comes first, the peptide text is derived from it. Bridges are numbered along the chain shown (N, C = ends). Roman numbers before positions name the chains, in order. Side-chain parts run from the residue outwards. [ ]: non-standard residue; d: D form. The star is where a group is joined. C18 diacid = O=C(O)CCCCCCCCCCCCCCCCC(=O)*; γGlu = O=C(O)[C@H](CCC(=O)[*:2])N[*:1]; Desaminohistidyl = O=C(CCc1c[nH]cn1)*; Ac4c = NC1(C(=O)O)CCC1; AEEA = NCCOCCOCC(=O)O; Aib = CC(C)(N)C(=O)O

For the assay, the target named is T1, human GLP-1 receptor (Homo sapiens, UniProt P43220).
T1 construct: expressed in transfected cells; host or cells: membranes of BHK cells, parent line BHKTS13, clone FCW467-12A
T1 sequence (P43220 24-463): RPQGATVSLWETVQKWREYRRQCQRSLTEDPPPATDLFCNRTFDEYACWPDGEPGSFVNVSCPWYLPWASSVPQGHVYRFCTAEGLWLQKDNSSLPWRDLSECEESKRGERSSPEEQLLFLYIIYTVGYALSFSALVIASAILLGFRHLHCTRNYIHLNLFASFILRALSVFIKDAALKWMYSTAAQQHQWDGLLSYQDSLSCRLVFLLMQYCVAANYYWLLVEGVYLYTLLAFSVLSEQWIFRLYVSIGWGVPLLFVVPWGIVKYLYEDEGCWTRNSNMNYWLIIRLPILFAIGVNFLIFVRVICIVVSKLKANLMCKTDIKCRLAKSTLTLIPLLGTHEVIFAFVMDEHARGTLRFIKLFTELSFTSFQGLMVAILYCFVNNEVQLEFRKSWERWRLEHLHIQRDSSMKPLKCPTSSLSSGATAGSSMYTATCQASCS
The assay is described as follows: Assay (II)(a): GLP-1 receptor binding, [125I]GLP-1 displacement, SPA on BHK membranes. To be noted: displacement of [125I]GLP-1, membranes with human GLP-1 receptor; read-out: IC50 GLP-1R. The procedure, abridged: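 Membranes from BHK cells expressing human GLP-1 receptor with WGA SPA beads, [125I]GLP-1(7-36)NH2 (480 pM added solution) and compound in HEPES pH 7.4 buffer with EGTA, MgCl2, Tween 20. Incubated 2 h at 30° C; SPA counts fitted by non-linear regression to IC50 in nM.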
A general note: In a radioligand displacement assay an active substance lowers the binding of a labelled ligand.
Usually IC50 stands for the concentration at which inhibition is half-maximal. With `CC[C@H](C)[C@H](NC(=O)[C@H](Cc1ccccc1)NC(=O)[C@H](CCC(=O)O)NC(=O)[C@H](CCCNC(=N)N)NC(=O)[C@H](C)NC(=O)[C@H](C)NC(=O)[C@H](CCC(N)=O)NC(=O)[C@H](CCC(=O)O)NC(=O)[C@H](CCC(=O)O)NC(=O)[C@H](CC(C)C)NC(=O)[C@H](Cc1ccc(O)cc1)NC(=O)[C@H](CCCCN)NC(=O)[C@H](CO)NC(=O)[C@@H](NC(=O)[C@H](CC(=O)O)NC(=O)[C@H](CO)NC(=O)[C@@H](NC(=O)[C@H](Cc1ccccc1)NC(=O)[C@@H](NC(=O)CNC(=O)[C@H](Cc1c[nH]cn1)NC(=O)C(C)(C)NC(=O)CCc1c[nH]cn1)[C@@H](C)O)[C@@H](C)O)C(C)C)C(=O)N[C@@H](C)C(=O)N[C@@H](Cc1c[nH]c2ccccc12)C(=O)N[C@@H](CC(C)C)C(=O)N[C@@H](CC(C)C)C(=O)N[C@@H](CCCCNC(=O)COCCOCCNC(=O)COCCOCCNC(=O)CC[C@H](NC(=O)CC[C@H](NC(=O)CCCCCCCCCCCCCCCCC(=O)O)C(=O)O)C(=O)O)C(=O)N[C@H](C(N)=O)[C@@H](C)O` [Example 5, N^ε34-[2-[2-[2-[[2-[2-[2-[[(4S)-4-carboxy-4-[[(4S)-4-carboxy-4-(17-carboxyheptadecanoylamino)butanoyl]amino]butanoyl]amino]ethoxy]ethoxy]acetyl]amino]ethoxy]ethoxy]acetyl]-[Imp7,Aib8,His9,Lys18,Glu22,Arg26,Leu33,Thr35]-GLP-1-(7-35)-peptide amide] (Desaminohistidyl-[Aib]HGTFTSDVSKYLEEQAAREFIAWLLK([AEEA-AEEA-γGlu-γGlu-C18 diacid])T-NH2), the IC50 worked out at 0.5 nM.
With `CC[C@H](C)[C@H](NC(=O)[C@H](Cc1ccccc1)NC(=O)[C@H](CCC(=O)O)NC(=O)[C@H](CCCNC(=N)N)NC(=O)[C@H](C)NC(=O)[C@H](C)NC(=O)[C@H](CCCNC(=N)N)NC(=O)CNC(=O)[C@H](CCC(=O)O)NC(=O)[C@H](CC(C)C)NC(=O)[C@H](Cc1ccc(O)cc1)NC(=O)[C@H](CCCCN)NC(=O)[C@H](CO)NC(=O)[C@@H](NC(=O)[C@H](CC(=O)O)NC(=O)[C@H](CO)NC(=O)[C@@H](NC(=O)[C@H](Cc1ccccc1)NC(=O)[C@@H](NC(=O)CNC(=O)[C@H](Cc1c[nH]cn1)NC(=O)C1(NC(=O)CCc2c[nH]cn2)CCC1)[C@@H](C)O)[C@@H](C)O)C(C)C)C(=O)N[C@@H](C)C(=O)N[C@@H](Cc1c[nH]c2ccccc12)C(=O)N[C@@H](CC(C)C)C(=O)N[C@@H](CC(C)C)C(=O)N[C@@H](CCCCNC(=O)CNC(=O)[C@H](CO)NC(=O)[C@H](CCC(=O)O)NC(=O)CNC(=O)[C@H](CO)NC(=O)CC[C@H](NC(=O)CC[C@H](NC(=O)CCCCCCCCCCCCCCCCC(=O)O)C(=O)O)C(=O)O)C(=O)N[C@H](C(N)=O)[C@@H](C)O` [Example 20, N^ε34-[2-[[(2S)-2-[[(2S)-4-carboxy-2-[[2-[[(2S)-2-[[(4S)-4-carboxy-4-[[(4S)-4-carboxy-4-(17-carboxyheptadecanoylamino)butanoyl]amino]butanoyl]amino]-3-hydroxypropanoyl]amino]acetyl]amino]butanoyl]amino]-3-hydroxypropanoyl]amino]acetyl]-[Imp7,Acb8,His9,Lys18,Arg23,Arg26,Leu33,Thr35]-GLP-1-(7-35)-peptide amide] (I: Desaminohistidyl-[Ac4c]HGTFTSDVSKYLEGRAAREFIAWLLKT-NH2 / II: {C18 diacid-γGlu-γGlu}-SGESG; amide I:27-II:C), the IC50 came to 0.3 nM.
In the case of `CC[C@H](C)[C@H](NC(=O)[C@H](Cc1ccccc1)NC(=O)[C@H](CCC(=O)O)NC(=O)[C@H](CCCNC(=N)N)NC(=O)[C@H](C)NC(=O)[C@H](C)NC(=O)[C@H](CCCNC(=N)N)NC(=O)[C@H](C)NC(=O)[C@H](CCC(=O)O)NC(=O)[C@H](CC(C)C)NC(=O)[C@H](Cc1ccc(O)cc1)NC(=O)[C@H](CCCCN)NC(=O)[C@H](CO)NC(=O)[C@@H](NC(=O)[C@H](CC(=O)O)NC(=O)[C@H](CO)NC(=O)[C@@H](NC(=O)[C@H](Cc1ccccc1)NC(=O)[C@@H](NC(=O)CNC(=O)[C@H](Cc1c[nH]cn1)NC(=O)C(C)(C)NC(=O)CCc1c[nH]cn1)[C@@H](C)O)[C@@H](C)O)C(C)C)C(=O)N[C@@H](C)C(=O)N[C@@H](Cc1c[nH]c2ccccc12)C(=O)N[C@@H](CC(C)C)C(=O)N[C@@H](CC(C)C)C(=O)N[C@@H](CCCCNC(=O)CC[C@H](NC(=O)COCCOCCNC(=O)COCCOCCNC(=O)CC[C@H](NC(=O)CC[C@H](NC(=O)CCCCCCCCCCCCCCCCC(=O)O)C(=O)O)C(=O)O)C(=O)O)C(=O)NCC(=O)NCC(=O)NCC(=O)O` [Example 31, N^ε34-[(4S)-4-carboxy-4-[[2-[2-[2-[[2-[2-[2-[[(4S)-4-carboxy-4-[[(4S)-4-carboxy-4-(17-carboxyheptadecanoylamino)butanoyl]amino]butanoyl]amino]ethoxy]ethoxy]acetyl]amino]ethoxy]ethoxy]acetyl]amino]butanoyl]-[Imp7,Aib8,His9,Lys18,Ala22,Arg23,Arg26,Leu33,Gly36]-GLP-1-(7-37)-peptide] (Desaminohistidyl-[Aib]HGTFTSDVSKYLEARAAREFIAWLLK([γGlu-AEEA-AEEA-γGlu-γGlu-C18 diacid])GGG-OH), the IC50 worked out at 0.3 nM.
Regarding `CC[C@H](C)[C@H](NC(=O)[C@H](Cc1ccccc1)NC(=O)[C@H](CCC(=O)O)NC(=O)[C@H](CCCNC(=N)N)NC(=O)[C@H](C)NC(=O)[C@H](C)NC(=O)[C@H](CCC(N)=O)NC(=O)[C@H](CCC(=O)O)NC(=O)[C@H](CCC(=O)O)NC(=O)[C@H](CC(C)C)NC(=O)[C@H](Cc1ccc(O)cc1)NC(=O)[C@H](CCCCN)NC(=O)[C@H](CO)NC(=O)[C@@H](NC(=O)[C@H](CC(=O)O)NC(=O)[C@H](CO)NC(=O)[C@@H](NC(=O)[C@H](Cc1ccccc1)NC(=O)[C@@H](NC(=O)CNC(=O)[C@H](Cc1c[nH]cn1)NC(=O)C(C)(C)NC(=O)CCc1c[nH]cn1)[C@@H](C)O)[C@@H](C)O)C(C)C)C(=O)N[C@@H](C)C(=O)N[C@@H](Cc1c[nH]c2ccccc12)C(=O)N[C@@H](CC(C)C)C(=O)N[C@@H](CC(C)C)C(=O)N[C@@H](CCCCNC(=O)COCCOCCNC(=O)COCCOCCNC(=O)CC[C@H](NC(=O)CCCCCCCCCCCCCCCCC(=O)O)C(=O)O)C(=O)N[C@H](C(N)=O)[C@@H](C)O` [Example 12, N^ε34-[2-[2-[2-[[2-[2-[2-[[(4S)-4-carboxy-4-(17-carboxyheptadecanoylamino)butanoyl]amino]ethoxy]ethoxy]acetyl]amino]ethoxy]ethoxy]acetyl]-[Imp7,Aib8,His9,Lys18,Glu22,Arg26,Leu33,Thr35]-GLP-1-(7-35)-peptide amide] (Desaminohistidyl-[Aib]HGTFTSDVSKYLEEQAAREFIAWLLK([AEEA-AEEA-γGlu-C18 diacid])T-NH2), the IC50 came to 0.7 nM.
Consider `CC[C@H](C)[C@H](NC(=O)[C@H](Cc1ccccc1)NC(=O)[C@H](CCC(=O)O)NC(=O)[C@H](CCCNC(=N)N)NC(=O)[C@H](C)NC(=O)[C@H](C)NC(=O)[C@H](CCCNC(=N)N)NC(=O)CNC(=O)[C@H](CCC(=O)O)NC(=O)[C@H](CC(C)C)NC(=O)[C@H](Cc1ccc(O)cc1)NC(=O)[C@H](CCCNC(=N)N)NC(=O)[C@H](CO)NC(=O)[C@@H](NC(=O)[C@H](CC(=O)O)NC(=O)[C@H](CO)NC(=O)[C@@H](NC(=O)[C@H](Cc1ccccc1)NC(=O)[C@@H](NC(=O)CNC(=O)[C@H](Cc1c[nH]cn1)NC(=O)C(C)(C)NC(=O)CCc1c[nH]cn1)[C@@H](C)O)[C@@H](C)O)C(C)C)C(=O)N[C@@H](C)C(=O)N[C@@H](Cc1c[nH]c2ccccc12)C(=O)N[C@@H](CC(C)C)C(=O)N[C@@H](CC(C)C)C(=O)N[C@@H](CCCCNC(=O)CC[C@H](NC(=O)CC[C@H](NC(=O)COCCOCCNC(=O)CC[C@H](NC(=O)CC[C@H](NC(=O)CCCCCCCCCCCCCCCCC(=O)O)C(=O)O)C(=O)O)C(=O)O)C(=O)O)C(=O)NCC(=O)N[C@@H](C)C(=O)NCC(=O)O` [Example 35, N^ε34-[(4S)-4-carboxy-4-[[(4S)-4-carboxy-4-[[2-[2-[2-[[(4S)-4-carboxy-4-[[(4S)-4-carboxy-4-(17-carboxyheptadecanoylamino)butanoyl]amino]butanoyl]amino]ethoxy]ethoxy]acetyl]amino]butanoyl]amino]butanoyl]-[Imp7,Aib8,His9,Arg18,Arg23,Arg26,Leu33,Ala36]-GLP-1-(7-37)-peptide] (Desaminohistidyl-[Aib]HGTFTSDVSRYLEGRAAREFIAWLLK([γGlu-γGlu-AEEA-γGlu-γGlu-C18 diacid])GAG-OH), for which the IC50 came out at 1 nM.
In the case of `CC[C@H](C)[C@H](NC(=O)[C@H](Cc1ccccc1)NC(=O)[C@H](CCC(=O)O)NC(=O)[C@H](CCCNC(=N)N)NC(=O)[C@H](C)NC(=O)[C@H](C)NC(=O)[C@H](CCC(N)=O)NC(=O)CNC(=O)[C@H](CCC(=O)O)NC(=O)[C@H](CC(C)C)NC(=O)[C@H](Cc1ccc(O)cc1)NC(=O)[C@H](CCCNC(=N)N)NC(=O)[C@H](CO)NC(=O)[C@@H](NC(=O)[C@H](CC(=O)O)NC(=O)[C@H](CO)NC(=O)[C@@H](NC(=O)[C@H](Cc1ccccc1)NC(=O)[C@@H](NC(=O)CNC(=O)[C@H](Cc1c[nH]cn1)NC(=O)C(C)(C)NC(=O)CCc1c[nH]cn1)[C@@H](C)O)[C@@H](C)O)C(C)C)C(=O)N[C@@H](C)C(=O)N[C@@H](Cc1c[nH]c2ccccc12)C(=O)N[C@@H](CC(C)C)C(=O)N[C@@H](CC(C)C)C(=O)N[C@@H](CCCCNC(=O)CNC(=O)[C@H](CO)NC(=O)[C@H](CCC(=O)O)NC(=O)CNC(=O)[C@H](CO)NC(=O)CC[C@H](NC(=O)CC[C@H](NC(=O)CCCCCCCCCCCCCCCCC(=O)O)C(=O)O)C(=O)O)C(=O)N[C@H](C(N)=O)[C@@H](C)O` [Example 8, N^ε34-[2-[[(2S)-2-[[(2S)-4-carboxy-2-[[2-[[(2S)-2-[[(4S)-4-carboxy-4-[[(4S)-4-carboxy-4-(17-carboxyheptadecanoylamino)butanoyl]amino]butanoyl]amino]-3-hydroxypropanoyl]amino]acetyl]amino]butanoyl]amino]-3-hydroxypropanoyl]amino]acetyl]-[Imp7,Aib8,His9,Arg18,Arg26,Leu33,Thr35]-GLP-1-(7-35)-peptide amide] (I: Desaminohistidyl-[Aib]HGTFTSDVSRYLEGQAAREFIAWLLKT-NH2 / II: {C18 diacid-γGlu-γGlu}-SGESG; amide I:27-II:C), the IC50 came to 0.9 nM.
